{"source": "paper PMC10880585", "about": "(ACS infectious diseases, 2023)", "key": {"P. falciparum strain 3D7 [1]": {"tested_on": "P. falciparum strain 3D7", "test": "P. falciparum growth inhibition assay", "assay_type": "cell-based, Plasmodium falciparum", "details": "read-out: Pf IC50"}, "P. falciparum DXR [2]": {"target": "T1, P. falciparum DXR (Plasmodium falciparum, UniProt O96693)", "T1 sequence (O96693 73-488)": "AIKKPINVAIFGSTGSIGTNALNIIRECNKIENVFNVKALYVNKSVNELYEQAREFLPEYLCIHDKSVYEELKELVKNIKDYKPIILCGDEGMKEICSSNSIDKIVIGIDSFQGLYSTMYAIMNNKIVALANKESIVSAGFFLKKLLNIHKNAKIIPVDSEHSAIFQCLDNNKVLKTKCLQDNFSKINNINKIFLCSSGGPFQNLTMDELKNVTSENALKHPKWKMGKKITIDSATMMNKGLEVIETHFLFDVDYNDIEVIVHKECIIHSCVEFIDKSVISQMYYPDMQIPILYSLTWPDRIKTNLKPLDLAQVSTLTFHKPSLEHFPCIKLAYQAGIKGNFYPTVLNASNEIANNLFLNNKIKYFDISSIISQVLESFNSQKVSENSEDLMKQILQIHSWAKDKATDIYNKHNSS", "test": "biochemical"}, "P. falciparum DXR [3]": {"target": "T1, P. falciparum DXR"}, "[4]": {"tested_on": "HAD1 mutant P. falciparum strain", "test": "Growth inhibition of had1 mutant P. falciparum", "assay_type": "cell-based, Plasmodium falciparum", "details": "had1 mutant vs wild-type 3D7"}, "HepG2 cells": {"tested_on": "HepG2 cells", "test": "HepG2 cytotoxicity assay", "details": "for IC50: Homo sapiens, HepG2, 24 h, read-out: HepG2 IC50; for cytotoxicity against HepG2: result in words"}, "[5]": {"test": "Metabolic stability in mouse liver microsomes"}, "P. falciparum strain 3D7 [6]": {"tested_on": "P. falciparum strain 3D7", "test": "IPP rescue of P. falciparum growth inhibition", "details": "250 μM IPP added to culture media, 72 h"}, "[7]": {"details": "following iv dosing; cited from earlier work"}, "[8]": {"details": "Plasmodium falciparum, 3D7, Erythrocyte, 72 h"}}, "note": "Read-outs that look alike come from different tables or passages of the source."}
{"smiles": "CCOP(=O)(/C=C/CN(O)C(=O)c1ccccc1)OCC", "note": "[10a, Diethyl [(1E)-3-(N-Hydroxy-1-phenylformamido)prop-1-en-1-yl]phosphonate]", "values": [{"measurement": "IC50", "setting": "P. falciparum strain 3D7 [1]; [8]", "result": "> 319", "unit": "µM"}]}
{"smiles": "CCOP(=O)(/C=C/CN(O)C(=O)Cc1ccccc1)OCC", "note": "[10b, Diethyl [(1E)-3-(N-Hydroxy-2-phenylacetamido)prop-1-en-1-yl]phosphonate]", "values": [{"measurement": "IC50", "setting": "P. falciparum strain 3D7 [1]; [8]", "result": 337, "unit": "µM"}]}
{"smiles": "CCOP(=O)(/C=C/CN(O)C(=O)CCc1ccccc1)OCC", "note": "[10c, Diethyl [(1E)-3-(N-Hydroxy-3-phenylpropanamido)prop-1-en-1-yl]phosphonate]", "values": [{"measurement": "IC50", "setting": "P. falciparum strain 3D7 [1]; [8]", "result": "> 293", "unit": "µM"}]}
{"smiles": "CCOP(=O)(/C=C/CN(O)C(=O)CCCc1ccccc1)OCC", "note": "[10d, Diethyl [(1E)-3-(N-Hydroxy-4-phenylbutanamido)prop-1-en-1-yl]phosphonate]", "values": [{"measurement": "IC50", "setting": "P. falciparum strain 3D7 [1]; [8]", "result": 31.2, "unit": "µM"}]}
{"smiles": "O=C(Cc1ccccc1)N(O)C/C=C/P(=O)(O)O", "note": "[11b, Sodium Hydrogen [(1E)-3-(N-Hydroxy-2-phenylacetamido)prop-1-en-1-yl]phosphonate]", "values": [{"measurement": "IC50", "setting": "P. falciparum strain 3D7 [1]; [8]", "result": 0.468, "unit": "µM"}, {"measurement": "IC50", "setting": "P. falciparum DXR [2]", "result": 0.17, "unit": "µM"}]}
{"smiles": "O=C(CCc1ccccc1)N(O)C/C=C/P(=O)(O)O", "note": "[11c, Sodium Hydrogen [(1E)-3-(N-hydroxy-3-phenylpropanamido)prop-1-en-1-yl]phosphonate]", "values": [{"measurement": "IC50", "setting": "P. falciparum strain 3D7 [1]; [8]", "result": 10.8, "unit": "µM"}, {"measurement": "IC50", "setting": "P. falciparum DXR [2]", "result": 1.34, "unit": "µM"}]}
{"smiles": "O=C(CCCc1ccccc1)N(O)C/C=C/P(=O)(O)O", "note": "[11d, Sodium Hydrogen [(1E)-3-(N-Hydroxy-4-phenylbutanamido)prop-1-en-1-yl]phosphonate]", "values": [{"measurement": "IC50", "setting": "P. falciparum strain 3D7 [1]; [8]", "result": 4.98, "unit": "µM"}, {"measurement": "IC50", "setting": "P. falciparum DXR [3]; read-out: Pf DXR IC50", "result": 0.898, "unit": "µM"}]}
{"smiles": "CC(C)(C)C(=O)OCOP(=O)(/C=C/CN(O)C(=O)c1ccccc1)OCOC(=O)C(C)(C)C", "note": "[13a, [({[(2,2-Dimethylpropanoyl)oxy]methoxy}[(1E)-3-(N-hydroxy-1-phenylformamido)-prop-1-en-1-yl]phosphoryl)oxy]-methyl 2,2-dimethylpropanoate]", "values": [{"measurement": "IC50", "setting": "P. falciparum strain 3D7 [1]; [8]", "result": 0.2, "unit": "µM"}, {"measurement": "resistance of parasites with elevated intracellular DXP", "setting": "[4]", "result": "resistant"}, {"measurement": "IC50", "setting": "HepG2 cells", "result": "> 50", "unit": "µM"}, {"measurement": "cytotoxicity against HepG2", "setting": "HepG2 cells", "result": "non-toxic"}, {"measurement": "half-life at 1 μM", "setting": "[5]; mouse, liver microsomes, pH 7.4", "result": "< 5", "unit": "min"}, {"measurement": "rescue of treated parasites by IPP", "setting": "P. falciparum strain 3D7 [6]", "result": "rescued"}]}
{"smiles": "CC(C)(C)C(=O)OCOP(=O)(/C=C/CN(O)C(=O)Cc1ccccc1)OCOC(=O)C(C)(C)C", "note": "[13b, [({[(2,2-Dimethylpropanoyl)oxy]methoxy}[(1E)-3-(N-hydroxy-2-phenylacetamido)prop-1-en-1-yl]phosphoryl)oxy]-methyl 2,2-Dimethylpropanoate]", "values": [{"measurement": "IC50", "setting": "P. falciparum strain 3D7 [1]; [8]", "result": 0.304, "unit": "µM"}]}
{"smiles": "CC(C)(C)C(=O)OCOP(=O)(/C=C/CN(O)C(=O)CCCc1ccccc1)OCOC(=O)C(C)(C)C", "note": "[13d, [({[(2,2-Dimethylpropanoyl)oxy]methoxy}[(1E)-3-(N-hydroxy-4-phenylbutanamido)prop-1-en-1-yl]phosphoryl)-oxy]methyl 2,2-Dimethylpropanoate]", "values": [{"measurement": "IC50", "setting": "P. falciparum strain 3D7 [1]; [8]", "result": 4.55, "unit": "µM"}]}
{"smiles": "O=CN(O)CCCP(=O)(O)O", "note": "[compound 1, Fosmidomycin, reference compound]", "values": [{"measurement": "IC50", "setting": "P. falciparum strain 3D7 [1]; [8]", "result": 1.02, "unit": "µM"}, {"measurement": "resistance of parasites with elevated intracellular DXP", "setting": "[4]", "result": "higher resistance"}, {"measurement": "renal excretion", "setting": "[7]", "result": 85, "unit": "%"}, {"measurement": "rescue of treated parasites by IPP", "setting": "P. falciparum strain 3D7 [6]", "result": "rescued"}]}
{"smiles": "CC(=O)N(O)CCCP(=O)(O)O", "note": "[compound 2, FR-900098, reference compound]", "values": [{"measurement": "IC50", "setting": "P. falciparum strain 3D7 [1]; […], 3 days, PicoGreen", "result": 0.511, "unit": "µM"}]}
{"smiles": "N.N.O=C(c1ccccc1)N(O)C/C=C/P(=O)(O)O", "note": "[compound 11a, Diammonium [(1E)-3-(N-Hydroxy-1-phenylformamido)-prop-1-en-1-yl]phosphonate]", "values": [{"measurement": "IC50", "setting": "P. falciparum strain 3D7 [1]; [8]", "result": 0.369, "unit": "µM"}, {"measurement": "resistance of parasites with elevated intracellular DXP", "setting": "[4]", "result": "resistant"}, {"measurement": "improvement in activity against the enzyme", "setting": "P. falciparum DXR [3]; 11a vs saturated compound 4", "result": 2, "unit": "fold"}, {"measurement": "IC50", "setting": "HepG2 cells", "result": "> 50", "unit": "µM"}, {"measurement": "cytotoxicity against HepG2", "setting": "HepG2 cells", "result": "non-toxic"}, {"measurement": "time stable in MLM", "setting": "[5]; mouse liver microsomes", "result": "over 1 h"}, {"measurement": "rescue of treated parasites by IPP", "setting": "P. falciparum strain 3D7 [6]", "result": "rescued"}]}
